Results on nine compounds are retold here after PubChem BioAssay (NCI).

What all share (assay): NCI anticancer screen, dose series, 48 h
The test system of experiment [1] is NCI/ADR-RES ovarian.
The subject of experiment [2] is SK-MEL-28 melanoma.
For experiment [3], the system named is SF-539 CNS.
Experiment [4] has as its system OVCAR-4 ovarian.
The test system of experiment [5] is SK-MEL-2 melanoma.
For experiment [6], the system named is UACC-257 melanoma.
Experiment [7] has as its system NCI-H23 lung.
In experiment [8] the test system is SW-620 colon.
Experiment [9] concerns NCI-H460 lung.
Experiment [10] has as its system HT29 colon.

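Method: 48-hour compound exposure of cells in 96-well plates, five concentrations, linear interpolation of endpoints. Abbreviation: GI50, concentration required for 50% inhibition of growth. TGI marks complete inhibition of growth.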 Where only a bound is given, the exact number is not on record here.

As to `O=[N+]([O-])c1cc([N+](=O)[O-])c(Cl)cc1Cl`, the GI50 in experiment [1] is 1.32 µM; in experiment [2], 1.74 µM; in experiment [3], 1.73 µM; in [4], 1.81 µM; in [5] it was 1.83 µM; in experiment [6] it was 0.594 µM. Further, the GI50 in experiment [7] was 1.4 µM. Besides, the TGI was 2.94 µM in experiment [1]; 3.24 µM in experiment [2]; 3.49 µM in experiment [3]; 3.23 µM in experiment [4]; 3.44 µM in [5]; 2.04 µM in experiment [6]. Also, the TGI in experiment [7] is 3 µM.

With `COC1CC(N)C(O)C(C)O1` (stereo unspecified), the TGI in experiment [1], in [8], in experiment [2], in experiment [3], in experiment [4] and in [9] was greater than 100 µM throughout. Moreover, the TGI in experiment [6], in experiment [7] and in experiment [10] was greater than 100 µM each time.

Take `N#CC(C#N)=C/C=C(\Sc1ccc(F)cc1Cl)c1ccc(Cl)cc1`: the GI50 was 0.791 µM in experiment [1]; 0.387 µM in experiment [8]; 1.23 µM in [2]; 0.391 µM in [3]; 4.97 µM in experiment [4]; 1.45 µM in experiment [5]. Besides, the values for the GI50 in experiment [9], in experiment [6] and in experiment [7] were 0.763 µM, 1.8 µM and 0.449 µM, respectively. The TGI in experiment [1] is 7.53 µM; in experiment [8], 3.82 µM; in experiment [2], 10.4 µM; in experiment [3], 3.59 µM; in experiment [4], greater than 64.2 µM; in experiment [5], 8.17 µM. Also, the results for the TGI in experiment [9], in experiment [6] and in experiment [7] were 4.82 µM, 4.76 µM and 2.49 µM, respectively.

On to `Nc1nc(N)c2nc3c(nc2n1)CCCCCCCCCC3`, for which the GI50 in experiment [1] is 2.4 µM; in experiment [8] it was 0.553 µM; in experiment [2], greater than 100 µM; in [3], 5.69 µM; in experiment [4], greater than 100 µM; in experiment [9], 0.358 µM. Also, the values for the GI50 in experiment [6] and in [7] were 2.4 µM and 2.86 µM, respectively. The TGI in experiment [1], in [8], in [2], in experiment [3], in experiment [4] and in [9] was greater than 100 µM throughout. Moreover, the TGI in experiment [6] and in experiment [7] was greater than 100 µM each time.

As to `CN(CCC(=O)/C(=C\c1ccccc1)c1ccc(Cl)cc1)Cc1ccccc1`, the GI50 in [1] was 3.68 µM; in [8], 2.63 µM; in experiment [3], 2.74 µM; in [4], 3.15 µM; in [5] it was 2.6 µM; in [9] it was 3.18 µM. The GI50 in experiment [6] is 10.7 µM; in experiment [7], 2.94 µM; in experiment [10] it was 2.28 µM. The TGI in experiment [1] was greater than 100 µM; in experiment [8], 7.74 µM; in [3] it was 6.88 µM; in [4], 12.7 µM; in [5] it was 7.23 µM; in experiment [9], 11.2 µM. The TGI in experiment [6] worked out at 24.2 µM; in experiment [7] it was 8.62 µM; in [10], 5.2 µM.

`CC(=O)O[C@H]1CC[C@@]2(C)C(=C/C(=N/OCCN3CCCC3)[C@H]3[C@@H]4CC[C@H](OC(C)=O)[C@@]4(C)CC[C@@H]32)C1`: the GI50 in [1] is greater than 100 µM; in [8], 24.1 µM; in experiment [2] it was 31.2 µM; in experiment [3], greater than 100 µM; in experiment [4] it was greater than 100 µM; in experiment [5], 26.3 µM. For the same compound, the GI50 in [9] was 24.8 µM; in experiment [7], greater than 100 µM; in experiment [10], 12.5 µM. Besides, the TGI is greater than 100 µM in [1]; 59.8 µM in experiment [8]; 64.1 µM in experiment [2]; greater than 100 µM in experiment [3]; greater than 100 µM in [4]; 65 µM in experiment [5]. The TGI in experiment [9] was 52.1 µM; in experiment [7], greater than 100 µM; in experiment [10] it was greater than 100 µM.

`O=C1N(Cc2ccccc2Cl)c2ccccc2C12NN=C(c1cccc(Cl)c1)S2` (stereo unspecified): the GI50 in [1] is 1.78 µM; in [8] it was 2.02 µM; in [2] it was 1.86 µM; in experiment [4], 1.95 µM; in experiment [5], 1.77 µM; in [9], 1.42 µM. Moreover, the GI50 was 1.7 µM in experiment [6], 1.63 µM in experiment [7] and 2.02 µM in experiment [10]. Also, the TGI in experiment [1] came to 4.14 µM; in [8], 4.33 µM; in experiment [2], 3.57 µM; in [4], 4.05 µM; in [5], 3.38 µM; in experiment [9], 3.32 µM. The figures for the TGI in experiment [6], in experiment [7] and in experiment [10] were 3.27 µM, 3.67 µM and 4.3 µM, respectively.

Regarding `Cl.Fc1c[c-]c(-c2ccccn2)c(F)c1.[Pt].c1ccc([PH+](C[PH+](c2ccccc2)c2ccccc2)c2ccccc2)cc1`, the GI50 in experiment [1] was 1.61 µM; in experiment [8] it was 0.197 µM; in experiment [2], 0.231 µM; in [3] it was 0.244 µM; in experiment [4] it was 0.267 µM; in experiment [6], 0.269 µM. For the same compound, the TGI in experiment [1] was 5.84 µM; in experiment [8], 0.494 µM; in [2], 0.706 µM; in experiment [3], 0.677 µM; in [4], 0.927 µM; in experiment [6], 0.829 µM.

In the case of `COC(=O)C(C(=O)OC)C(Br)C(Br)C(Br)c1ccccc1` (stereo unspecified), the GI50 in experiment [1] is 17.8 µM; in experiment [8] it was 3.29 µM; in [2] it was 12.5 µM; in experiment [3], 18.2 µM; in [4], 4.33 µM; in experiment [5], 5.92 µM. Moreover, the results for the GI50 in [9], in experiment [6] and in experiment [10] were 19.9 µM, 2.34 µM and 5.68 µM, respectively. The TGI amounted to 42.4 µM in [1]; 11.4 µM in [8]; 25.3 µM in [2]; 33.7 µM in experiment [3]; 17.8 µM in experiment [4]; 19.2 µM in experiment [5]. For the same compound, the TGI in [9] was determined as 37.2 µM; in experiment [6], 11 µM; in experiment [10], 21.8 µM.
